Only the 19 paired bases of each siRNA are shown; overhangs and chemistry are not given here.
Target: placental-type alkaline phosphatase
Assay: five studies, different assays
Settings: siRNA
Note: test concentration or dose not given here.

Substance	target inhibition [%]
sense CUUUGAGCCUGGAGACAUG / antisense CAUGUCUCCAGGCUCAAAG	79
sense CUACACGGUCCUCCUAUAC / antisense GUAUAGGAGGACCGUGUAG	21.2
sense GACUGAGACGAUCAUGUUC / antisense GAACAUGAUCGUCUCAGUC	85
sense CGGCGCCCGGCCGGAUGUU / antisense AACAUCCGGCCGGGCGCCG	60
sense CGGAAACGGUCCAGGCUAU / antisense AUAGCCUGGACCGUUUCCG	80.2
sense CAAACAUGUGCCAGACAGU / antisense ACUGUCUGGCACAUGUUUG	88
sense GAAACGGUCCAGGCUAUGU / antisense ACAUAGCCUGGACCGUUUC	5.96
sense UCUGGUGCAGGAAUGGCUG / antisense CAGCCAUUCCUGCACCAGA	30
sense CCUACACGGUCCUCCUAUA / antisense UAUAGGAGGACCGUGUAGG	62.4
sense CACUGCCGACCACUCCCAC / antisense GUGGGAGUGGUCGGCAGUG	-10
sense UGUUCGACGACGCCAUUGA / antisense UCAAUGGCGUCGUCGAACA	74
sense CGGAUGUUACCGAGAGCGA / antisense UCGCUCUCGGUAACAUCCG	32
sense GGGCGGGCCAGCUCACCAG / antisense CUGGUGAGCUGGCCCGCCC	20
sense GAAUCUGGUGCAGGAAUGG / antisense CCAUUCCUGCACCAGAUUC	56.5
sense AGGAGAACCCGGACUUCUG / antisense CAGAAGUCCGGGUUCUCCU	81
sense AGUACCCAGAUGACUACAG / antisense CUGUAGUCAUCUGGGUACU	1.85
sense CUUCAUAGCGCACGUCAUG / antisense CAUGACGUGCGCUAUGAAG	16.5
sense GAGUGCAGCACGCCUCGCC / antisense GGCGAGGCGUGCUGCACUC	-5
sense GCCAAGAACCUCAUCAUCU / antisense AGAUGAUGAGGUUCUUGGC	90.8

Target: ICAM1
Assay: five studies, different assays
Settings: siRNA

Substance	target inhibition [%]
sense UCCAUAGACAUGUGUAGCA / antisense UGCUACACAUGUCUAUGGA	63
sense CCUACCAGCUCCAGACCUU / antisense AAGGUCUGGAGCUGGUAGG	45
sense AGUGAUCCUCCCACCUCAG / antisense CUGAGGUGGGAGGAUCACU	45
sense AGCUCCUGCUGAAGGCCAC / antisense GUGGCCUUCAGCAGGAGCU	10
sense GCUCAAGUGUCUAAAGGAU / antisense AUCCUUUAGACACUUGAGC	40
sense ACGGUGCUGGUGAGGAGAG / antisense CUCUCCUCACCAGCACCGU	-20
sense GGGCAUUGUCCUCAGUCAG / antisense CUGACUGAGGACAAUGCCC	62
sense CAUUGGCCAACCUGCCUUU / antisense AAAGGCAGGUUGGCCAAUG	28
sense CCAGACUUCCUUUGUGUUA / antisense UAACACAAAGGAAGUCUGG	48
sense UGAACCUAUCCCGGGACAG / antisense CUGUCCCGGGAUAGGUUCA	20
sense CCAUGAGGACAUACAACUG / antisense CAGUUGUAUGUCCUCAUGG	58
sense UGUGUGUGUGUGUAUGUGU / antisense ACACAUACACACACACACA	7
sense AGUCGACGCUGAGCUCCUC / antisense GAGGAGCUCAGCGUCGACU	0
sense CGGAUGCCAGCUUGGGCAC / antisense GUGCCCAAGCUGGCAUCCG	24
sense UGACGGAUGCCAGCUUGGG / antisense CCCAAGCUGGCAUCCGUCA	29
sense ACACUGCAGGAGAGUGCCU / antisense AGGCACUCUCCUGCAGUGU	0
sense UAUUGGGUAUGCUGAGGCC / antisense GGCCUCAGCAUACCCAAUA	43

Substance	target inhibition [%]
sense GACGUGUGCAGUAAUACUG / antisense CAGUAUUACUGCACACGUC	30
sense CUCAGCGGUCAUGUCUGGA / antisense UCCAGACAUGACCGCUGAG	33
sense CCAUGGUACCUGCACACCU / antisense AGGUGUGCAGGUACCAUGG	75
sense ACCUCUGUCGGGCCAGGAG / antisense CUCCUGGCCCGACAGAGGU	5
sense AACACACAAGCCACGCCUC / antisense GAGGCGUGGCUUGUGUGUU	1
sense GCCACACUGAACAGAGUGG / antisense CCACUCUGUUCAGUGUGGC	21
sense CCAUGAAACCGAACACACA / antisense UGUGUGUUCGGUUUCAUGG	59
sense UCACAGGUUCAGAGAUUAC / antisense GUAAUCUCUGAACCUGUGA	34
sense UUGCACUAUUGCAGCUCCA / antisense UGGAGCUGCAAUAGUGCAA	5
sense CCAGGUCCACCUGGCACUG / antisense CAGUGCCAGGUGGACCUGG	21
sense GGAGCUUCGUGUCCUGUAU / antisense AUACAGGACACGAAGCUCC	58
sense GGUCUCUGGCCUCACGGAG / antisense CUCCGUGAGGCCAGAGACC	7
sense GGGACAGGGCCUCUUCCUC / antisense GAGGAAGAGGCCCUGUCCC	52
sense CCAACCAAUGUGCUAUUCA / antisense UGAAUAGCACAUUGGUUGG	7
sense UAGGCUCACAACACCACAC / antisense GUGUGGUGUUGUGAGCCUA	41
sense AAGGAGUUGCUCCUGCCUG / antisense CAGGCAGGAGCAACUCCUU	-15
sense GGAUGCCAGCUUGGGCACU / antisense AGUGCCCAAGCUGGCAUCC	40

Target: PTEN
Assay: five studies, different assays
Settings: siRNA

Substance	target inhibition [%]
sense UUCCGAAAGGUUUUGCUAC / antisense GUAGCAAAACCUUUCGGAA	32
sense GCGGUCCAGAGCCAAGCGG / antisense CCGCUUGGCUCUGGACCGC	31
sense UGACACCGCCAAAUUUAAU / antisense AUUAAAUUUGGCGGUGUCA	65
sense AUAAAGACAAAGCCAACCG / antisense CGGUUGGCUUUGUCUUUAU	0
sense GGGUAAAUACAUUCUUCAU / antisense AUGAAGAAUGUAUUUACCC	70
sense UUACCAGUUAUAGGAACAA / antisense UUGUUCCUAUAACUGGUAA	40
sense ACCAUCUCCAGCUAUUUAC / antisense GUAAAUAGCUGGAGAUGGU	6
sense UAAAACACCAUGAAAAUAA / antisense UUAUUUUCAUGGUGUUUUA	58
sense GGUCUUCCGAGGCGCCCGG / antisense CCGGGCGCCUCGGAAGACC	0
sense CAGUCAGAGGCGCUAUGUG / antisense CACAUAGCGCCUCUGACUG	73
sense AGUGAAUCUGUAUUGGGGU / antisense ACCCCAAUACAGAUUCACU	39
sense AAGUAAGGACCAGAGACAA / antisense UUGUCUCUGGUCCUUACUU	75
sense CUCUGGCUGCUGAGGAGAA / antisense UUCUCCUCAGCAGCCAGAG	52
sense GCACAUCCAGGGACCCGGG / antisense CCCGGGUCCCUGGAUGUGC	32
sense CUUCCUCGGCUUCUCCUGA / antisense UCAGGAGAAGCCGAGGAAG	62
sense UCCACAGGGUUUUGACACU / antisense AGUGUCAAAACCCUGUGGA	45
sense GGGACGAACUGGUGUAAUG / antisense CAUUACACCAGUUCGUCCC	75
sense UUUCCAUCCUGCAGAAGAA / antisense UUCUUCUGCAGGAUGGAAA	27

Substance	target inhibition [%]
sense AAGAAACACAGCAACAAUG / antisense CAUUGUUGCUGUGUUUCUU	30
sense AAAGGUGAAGAUAUAUUCC / antisense GGAAUAUAUCUUCACCUUU	9
sense GGUCCCGUCCGCCUCUCGC / antisense GCGAGAGGCGGACGGGACC	0
sense CUUGACCUAUAUUUAUCCA / antisense UGGAUAAAUAUAGGUCAAG	48
sense GCGGCGGCGGCACCUCCCG / antisense CGGGAGGUGCCGCCGCCGC	20
sense AUACAGGAACAAUAUUGAU / antisense AUCAAUAUUGUUCCUGUAU	49
sense CUCAGAAAGGAAAUAAUUU / antisense AAAUUAUUUCCUUUCUGAG	30
sense CAAAUCCAGAGGCUAGCAG / antisense CUGCUAGCCUCUGGAUUUG	44
sense GCUACAGUUAUUAAUCUGG / antisense CCAGAUUAAUAACUGUAGC	37
sense UCUGUCACCAACUGAAGUG / antisense CACUUCAGUUGGUGACAGA	25
sense UCUCGGAAGCUGCAGCCAU / antisense AUGGCUGCAGCUUCCGAGA	40
sense CACUGACUCUGAUCCAGAG / antisense CUCUGGAUCAGAGUCAGUG	15
sense CCUGUGAGCAGCCGCGGGG / antisense CCCCGCGGCUGCUCACAGG	25
sense GAGGCAGCCGUUCGGAGGA / antisense UCCUCCGAACGGCUGCCUC	58
sense CCUUUUGUGAAGAUCUUGA / antisense UCAAGAUCUUCACAAAAGG	73
sense UUCCCGUUUUAUUCCAGUU / antisense AACUGGAAUAAAACGGGAA	38
sense AAGAAUGGGCUUGAAACAU / antisense AUGUUUCAAGCCCAUUCUU	40
sense UCAAAGUAGAGUUCUUCCA / antisense UGGAAGAACUCUACUUUGA	30

— the OligoGym collection
